Here are results for one compound from US7259171B2, “Di and trifluoro-triazolo-pyridines anti-inflammatory compounds” (Pfizer Inc., priority 2002, dated 2007).

Usually melting point stands for the temperature, or range, at which the solid turns liquid.

Compound `CC(C)c1nnc2ccc(-c3ocnc3-c3c(F)cccc3F)cn12` [Example 1, 6-[4-(2,6-Difluoro-phenyl)-oxazol-5-yl]-3-isopropyl-[1,2,4]triazolo[4,3-a]pyridine] gave a melting point of 175.7 to 176.2 °C.
